# Test results taken from publication PMC4705544, “CPUY201112, a novel synthetic small-molecule compound and inhibitor of heat shock protein Hsp90, induces p53-mediated apoptosis in MCF-7 cells” (Scientific Reports, 2016).
# Target: T1, Hsp90α (Homo sapiens, UniProt P07900)
# T1 construct: gene HSP90AA1; full-length Hsp90
# Assay: BLI (ForteBio Octet Red […]); also FP competition with FITC-geldanamycin (IC50 […]) and HTRF ATPase inhibition
# Format: binding
structure (smiles),measurement,value
CCOc1ncc2c(n1)CCN(C(=O)c1cc(C(C)C)c(O)cc1O)C2 [CPUY201112],Kd,0.027 ± 0.005 µM
